Experimental data: patent publication US11013726B2 (Arbutus Biopharma Corporation, priority 2016, dated 2021)

What follows are compounds tested on HBsAg (assay: HBsAg assay). Conditions: Hepatitis B virus, HepG2.2.15, 144 h, read-out: sAg EC50, μM, HepG2.2.15 cells, day 6.
Format: cell-based, hepatitis B virus
Method: Inhibition of HBsAg was determined in HepG2.2.15 cells. Cells were maintained in culture medium containing 10% fetal calf serum, […], Glutamine, penicillin/streptomycin. Cells were seeded in 96-well collagen-coated plate at a density of 30,000 cells/well. Serially diluted compounds were added to cells next day at the final DMSO concentration of 0.5%. Cells were incubated with compounds for 2-3 days, after which medium was removed. Fresh medium containing compounds was added to cells for additional 3-4 days. At day 6 after exposure of compounds, supernatant was collected, the HBsAg immunoassay (microplate-based chemiluminescence immunoassay kits, CLIA, Autobio Diagnosics Co., Zhengzhou, China, Catalog # CL0310-2) was used to determine the level of HBsAg according to manufactory instruction. Dose-response curves were generated and the EC50 value (effective concentrations that achieved 50% inhibitory effect) were determined using XLfit software. In addition, cells were seeded at a density of 5,000 cells/well for determination of cell viability in the presence and absence of compounds by using CellTiter-Glo reagent (Promega). Tables 1-3 show EC50 values obtained by the HBsAg assay for selected compounds.
COc1cc2c(cc1Cl)-c1cc(=O)c(C(=O)O)cn1[C@H](C(C)C)CO2 (single isomer, unassigned) [Example 3] showed an EC50 of 0.032 µM.
Work on COc1cc2c(cc1Cl)-c1cc(=O)c(C(=O)O)cn1[C@@H](C(C)C)CO2 (single isomer, unassigned) [Example 4] yielded an EC50 of 3.4 µM.
In the case of COc1cc2c(cc1Cl)-c1cc(=O)c(C(=O)O)cn1[C@@H](CC(C)C)CO2 (single isomer, unassigned) [Example 6], the EC50 is reported as 3.8 µM.
COc1cc2c(cc1Cl)-c1cc(=O)c(C(=O)O)cn1[C@H](CC(C)C)CO2 (single isomer, unassigned) [Example 7] was tested, and the EC50 was 0.61 µM.
For COCCCOc1cc2c(nc1OC)-c1cc(=O)c(C(=O)O)cn1[C@@H](C(C)C)C2 (single isomer, unassigned) [Example 21], the EC50 was 0.53 µM.
COCCOc1cc2c(cc1Cl)-c1cc(=O)c(C(=O)O)cn1[C@H](C(C)C)CO2 (single isomer, unassigned) [Example 30] showed an EC50 of 0.053 µM.
With COCCOc1cc2c(cc1Cl)-c1cc(=O)c(C(=O)O)cn1[C@@H](C(C)C)CO2 (single isomer, unassigned) [Example 31] the EC50 was 0.8 µM.
With COc1cc2c(cc1Cl)-c1cc(=O)c(C(=O)O)cn1C(CC(C)C)CO2 (stereo not drawn) [Example 5, 2-Chloro-7-isobutyl-3-methoxy-11-oxo-6,7-dihydro-11H-benzo[f]pyrido[1,2-d][1,4]oxazepine-10-carboxylic acid] the EC50 was 0.91 µM.
With CCC1COc2cc(OC)c(Cl)cc2-c2cc(=O)c(C(=O)O)cn21 (stereo not drawn) [Example 8, 2-Chloro-7-ethyl-3-methoxy-11-oxo-6,7-dihydro-11H-benzo[f]pyrido[1,2-d][1,4]oxazepine-10-carboxylic acid] the EC50 was 0.42 µM.
Compound COc1cc2c(cc1Cl)-c1cc(=O)c(C(=O)O)cn1C(CO)CO2 (stereo not drawn) [Example 9] has an EC50 of 8.6 µM.
Compound COc1cc2c(cc1Cl)-c1cc(=O)c(C(=O)O)cn1C(C1CCC1)CO2 (stereo not drawn) [Example 10, 2-Chloro-7-cyclobutyl-3-methoxy-11-oxo-6,7-dihydro-11H-benzo[f]pyrido[1,2-d][1,4]oxazepine-10-carboxylic acid] has an EC50 of 0.24 µM.
Compound COc1cc2c(cc1Cl)-c1cc(=O)c(C(=O)O)cn1C(COC(C)C)CO2 (stereo not drawn) [Example 11, 2-Chloro-7-(isopropoxymethyl)-3-methoxy-11-oxo-6,7-dihydro-11H-benzo[f]pyrido[1,2-d][1,4]oxazepine-10-carboxylic acid] has an EC50 of 12 µM.
For COc1cc2c(cc1Cl)-c1cc(=O)c(C(=O)O)cn1CC(C(C)(C)C)O2 (stereo not drawn) [Example 12, 6-(Tert-butyl)-2-chloro-3-methoxy-11-oxo-6,7-dihydro-11H-benzo[f]pyrido[1,2-d][1,4]oxazepine-10-carboxylic acid], the EC50 was 47 µM.
Compound COc1cc2c(cc1Cl)-c1cc(=O)c(C(=O)O)cn1C1CCC1O2 (stereo not drawn) [Example 13, 11-Chloro-10-methoxy-2-oxo-5a,6,7,7a-tetrahydro-2H-benzo[f]cyclobuta[b]pyrido[1,2-d][1,4]oxazepine-3-carboxylic acid] has an EC50 of 1.8 µM.
In the case of COc1cc2c(cc1Cl)-c1cc(=O)c(C(=O)O)cn1C1CCCC1O2 (stereo not drawn) [Example 14, 12-Chloro-11-methoxy-2-oxo-5a,7,8,8a-tetrahydro-2H,6H-benzo[f]cyclopenta[b]pyrido[1,2-d][1,4]oxazepine-3-carboxylic acid], the EC50 is reported as 0.56 µM.
COc1cc2c(cc1F)-c1cc(=O)c(C(=O)O)cn1C(C(C)C)CO2 (stereo not drawn) [Example 15, 2-Fluoro-7-isopropyl-3-methoxy-11-oxo-6,7-dihydro-11H-benzo[f]pyrido[1,2-d][1,4]oxazepine-10-carboxylic acid] gave an EC50 of 0.9 µM.
With COc1ccc2c(c1)OCC(C(C)C)n1cc(C(=O)O)c(=O)cc1-2 (stereo not drawn) [Example 16, 7-Isopropyl-3-methoxy-11-oxo-6,7-dihydro-11H-benzo[f]pyrido[1,2-d][1,4]oxazepine-10-carboxylic acid] the EC50 was 3.5 µM.
Compound COc1ccc2c(c1)OC[C@@H](C(C)C)n1cc(C(=O)O)c(=O)cc1-2 [Example 17, (R)-7-Isopropyl-3-methoxy-11-oxo-6,7-dihydro-11H-benzo[f]pyrido[1,2-d][1,4]oxazepine-10-carboxylic acid] has an EC50 of 0.88 µM.
In the case of COc1cc2c(cc1OC)-c1cc(=O)c(C(=O)O)cn1C(C(C)C)CC2 (stereo not drawn) [Example 19, 6-Isopropyl-10,11-dimethoxy-2-oxo-2,6,7,8-tetrahydrobenzo[c]pyrido[1,2-a]azepine-3-carboxylic acid], the EC50 is reported as 0.027 µM.

Same assay, conditions: read-out: sAg EC50; HepG2.2.15 cells, day 6
With COc1cc2c(nc1OC)-c1cc(=O)c(C(=O)O)cn1C(C(C)C)C2 (single isomer, unassigned) [Example 24, 6-Isopropyl-2,3-dimethoxy-10-oxo-5,10-dihydro-6H-pyrido[1,2-h][1,7]naphthyridine-9-carboxylic acid] the EC50 was 0.25 µM.
COc1cc2c(nc1OC)-c1cc(=O)c(C(=O)O)cn1C(C(C)C)C2 (single isomer, unassigned) [Example 25, 6-Isopropyl-2,3-dimethoxy-10-oxo-5,10-dihydro-6H-pyrido[1,2-h][1,7]naphthyridine-9-carboxylic acid] showed an EC50 of 0.007 µM.
COCCCOc1cc2c(nc1Cl)-c1cc(=O)c(C(=O)O)cn1C1C(CCC1(C)C)O2 (single isomer, unassigned) [Example 82, 6-Chloro-7-(3-methoxypropoxy)-12,12-dimethyl-3-oxo-9a,11,12,12a-tetrahydro-3H,10H-cyclopenta[b]dipyrido[1,2-d:2′,3′-f][1,4]oxazepine-2-carboxylic acid] was tested, and the EC50 was 0.008 µM.
For COCCCOc1cc2c(nc1Cl)-c1cc(=O)c(C(=O)O)cn1C1C(CCC1(C)C)O2 (single isomer, unassigned) [Example 83, 6-Chloro-7-(3-methoxypropoxy)-12,12-dimethyl-3-oxo-9a,11,12,12a-tetrahydro-3H,10H-cyclopenta[b]dipyrido[1,2-d:2′,3′-f][1,4]oxazepine-2-carboxylic acid], the EC50 was 1 µM.
CC(C)(C)C1Cc2cc3c(cc2-c2cc(=O)c(C(=O)O)cn21)OCCCO3 (single isomer, unassigned) [Example 91, 6-(Tert-butyl)-2-oxo-6,7,11,12-tetrahydro-2H,10H-[1,4]dioxepino[2,3-g]pyrido[2,1-a]isoquinoline-3-carboxylic acid] showed an EC50 of 0.94 µM.
In the case of CC(C)(C)C1Cc2cc3c(cc2-c2cc(=O)c(C(=O)O)cn21)OCCCO3 (single isomer, unassigned) [Example 92, 6-(Tert-butyl)-2-oxo-6,7,11,12-tetrahydro-2H,10H-[1,4]dioxepino[2,3-g]pyrido[2,1-a]isoquinoline-3-carboxylic acid], the EC50 is reported as 0.011 µM.
With CC(C)(C)C1Cc2cc3c(cc2-c2cc(=O)c(C(=O)O)cn21)OCC1(COC1)CO3 (single isomer, unassigned) [Example 94, 6′-(Tert-butyl)-2′-oxo-6′,7′-dihydro-2′H,10′H,12′H-spiro[oxetane-3,11′-[1,4]dioxepino[2,3-g]pyrido[2,1-a]isoquinoline]-3′-carboxylic acid] the EC50 was 2.2 µM.
Compound CC(C)(C)C1Cc2cc3c(cc2-c2cc(=O)c(C(=O)O)cn21)OCC1(COC1)CO3 (single isomer, unassigned) [Example 95, 6′-(Tert-butyl)-2′-oxo-6′,7′-dihydro-2′H,10′H,12′H-spiro[oxetane-3,11′-[1,4]dioxepino[2,3-g]pyrido[2,1-a]isoquinoline]-3′-carboxylic acid] has an EC50 of 0.08 µM.
For COCCCOc1cc2c(nc1OC)-c1cc(=O)c(C(=O)O)cn1C(C)(C(C)C)C2 (single isomer, unassigned) [Example 156, 6-Isopropyl-2-methoxy-3-(3-methoxypropoxy)-6-methyl-10-oxo-5,10-dihydro-6H-pyrido[1,2-h][1,7]naphthyridine-9-carboxylic acid], the EC50 was 0.001 µM.
COCCCOc1cc2c(nc1OC)-c1cc(=O)c(C(=O)O)cn1C(C)(C(C)C)C2 (single isomer, unassigned) [Example 157, 6-Isopropyl-2-methoxy-3-(3-methoxypropoxy)-6-methyl-10-oxo-5,10-dihydro-6H-pyrido[1,2-h][1,7]naphthyridine-9-carboxylic acid] was tested, and the EC50 was 0.11 µM.
Work on COCCCOc1cc2c(nc1OC)-c1cc(=O)c(C(=O)O)cn1C(C)(C(C)(C)C)C2 (single isomer, unassigned) [Example 159, 6-(Tert-butyl)-2-methoxy-3-(3-methoxypropoxy)-6-methyl-10-oxo-5,10-dihydro-6H-pyrido[1,2-h][1,7]naphthyridine-9-carboxylic acid] yielded an EC50 of 0.0009 µM.
COCCCOc1cc2c(nc1OC)-c1cc(=O)c(C(=O)O)cn1C(C)(C(C)(C)C)C2 (single isomer, unassigned) [Example 160, 6-(Tert-butyl)-2-methoxy-3-(3-methoxypropoxy)-6-methyl-10-oxo-5,10-dihydro-6H-pyrido[1,2-h][1,7]naphthyridine-9-carboxylic acid] showed an EC50 of 0.038 µM.
COCCCOc1cc2c([nH]c1=O)-c1cc(=O)c(C(=O)O)cn1C(C(C)C)C2 (single isomer, unassigned) [Example 166, 6-Isopropyl-3-(3-methoxypropoxy)-2,10-dioxo-2,5,6,10-tetrahydro-1H-pyrido[1,2-h][1,7]naphthyridine-9-carboxylic acid] was tested, and the EC50 was 0.45 µM.
COCCCOc1cc2c([nH]c1=O)-c1cc(=O)c(C(=O)O)cn1C(C(C)C)C2 (single isomer, unassigned) [Example 167, 6-Isopropyl-3-(3-methoxypropoxy)-2,10-dioxo-2,5,6,10-tetrahydro-1H-pyrido[1,2-h][1,7]naphthyridine-9-carboxylic acid] was tested, and the EC50 was 1 µM.
